Laboratory results: article PMC3462190, “A Peptidic Unconjugated GRP78/BiP Ligand Modulates the Unfolded Protein Response and Induces Prostate Cancer Cell Death” (PLoS ONE, 2012)
Where no end group is shown, it is not given here.

How the values were obtained:
LNCaP cells = assay: Clonogenic assay; format: cell-based; settings: 19-mer expressing vector vs vector control; at least three experiments
Method: (§1) Figure 6 Selectivity of action of the Bag-1 peptide. A Amino acid sequence of the 19mer peptide and its deletion mutants. B GST pull-down assay performed incubating 400 µg of 22Rv.1 cell lysate and 25 µg of GST-fused deletion mutants of the 19mer peptide. After the pull-down experiment, Western blots were carried out with anti-GRP78/BiP and GST antibodies. C. Fluorescence polarization (FP) assays with a 10 nM FITC-labeled 7-mer Bag-1 peptide and dilutions of the GST-fused substrate binding domain of GRP78 in 60 µl of Tris-GSH buffer (50 mM Tris, 10 mM reduced glutathione and 0.1% BSA, pH 8.0). Triplicate samples were measured after 5 h of incubation at room temperature with an Infinite F-200 reader (Tecan) with excitation at 490 nm and emission at 535 nm. Binding constants were determined from three independent experiments using non-linear regression in Sigma Plot 10.0. D. Competition assays with a complex of 10 nM of FITC-labeled Bag-1 7-mer peptide and 0.75 mg/ml GST-fused GRP78 substrate binding domain was measured against a dilution series from 100 µM to 0.1 nM of wild-type Bag-1 7-mer peptide (filled line) or triple mutant peptide (dotted line) in 40 µl of Tris-GSH buffer. FITC-peptide and the FITC-peptide-protein complex were used as controls. Fluorescence polarization was determined as described above and IC50 values were determined in Sigma Plot. E. Clonogenic assay in 22Rv.1 cells with pcDNA3 based vectors coding for the N-terminal Bag-1 peptide (positive control), the 19mer and the 19mer mutant fragments as well as the empty expression vector (negative control). Cells were transfected with the indicated constructs and selected in medium containing neomycin. The colonies were stained and quantified. Shown as bar chats are the mean ± SEM of at least three independent experiments with three different plasmid preparations. (*p<0.05). F. In vivo luciferase refolding assay was performed in HEK-293 cells transfected at 70% confluency with 2 µg β-actin-fire fly luciferase construct, 3 µg pcDNA3 empty vector as control or pCMV6-GRP78, 6 µg pcDNA3.1-HA-19-mer or 19-mer mutant peptide and 0.5 µg Renilla luciferase construct to determine the transfection efficiency. Shown as bar charts is the mean of at least three different experiments ± SEM (*p<0.05). G. Clonogenic assay with the indicated malignant (LNCaP, DU145, PC3) and benign (BPH1, PNT2, RWPE1) prostate cell lines transfected with the vector control (black bars) and a vector expressing the 19-mer peptide (white bars). Shown are the mean ± SD of at least three different experiments performed with three different plasmid preparations (*p<0.05). H. Western blot analysis of cell lysates derived from the prostate cancer cells used for the colony forming assay with specific antibodies against GRP78 and β-actin.

RWPE-1 cells = assay: Clonogenic assay; format: cell-based; settings: benign prostate cells, 19-mer vector vs control; at least three experiments
Method: as §1

DU145 cells = assay: Clonogenic assay; format: cell-based; settings: 19-mer expressing vector vs vector control; at least three experiments
Method: as §1

PNT-2 cells = assay: Clonogenic assay; format: cell-based; settings: benign prostate cells, 19-mer vector vs control; at least three experiments
Method: as §1

PC3 cells = assay: Clonogenic assay; format: cell-based; settings: 19-mer expressing vector vs vector control; at least three experiments
Method: as §1

22Rv.1 xenograft tumor = assay: TUNEL assay on xenograft tumor sections; format: in vivo, athymic nude mice; settings: 22Rv.1 xenografts, clones P25, P29 and P42 vs V18, V19 and V33
Method: Tissues were fixed in 10% formalin for 16 h at room temperature, stored in ethanol (50%), paraffin embedded, and sectioned 5 µm thick with a Leica RM 2155 microtome. Apoptotic cells were detected via terminal deoxynucleotidyl transferase-mediated deoxyuridine-triphosphate-biotin nick end labeling (TUNEL) assay using the DNA fragmentation ApopTag® peroxidase in situ apoptosis detection kit (Millipore, Schwalbach, Germany).
Figure 4 The Bag-1 peptide inhibits prostate cancer cell growth in vivo. A. Stable clones of 22Rv.1 cells show reduced cell viability in vitro. Stable clones were seeded in a 96-well plate and the cell number in each well was estimated by measuring the ratio between the wavelength of excitation and emission 560/590 nm using the CellTiter-Blue™ proliferation assay. The bar charts represent the mean of at least four independent experiments ±SD (*p<0.05). B. Determination of the level of the Bag-1 expressed in the 22Rv.1 clones. Cellular extracts of 22v.1 stable clones were subjected to Western blot analysis. An anti-HA antibody was used to detect the peptide and an anti-β-actin antibody for equal loading control. […] Tumor size was measured once per week using a caliper and expressed as tumor volume in mm^3. […] Nuclei are stained blue-purple with hematoxylin while apoptotic cells detected with the TUNEL assay are stained brown. […]

| Molecule | LNCaP growth in clonogenic assay (LNCaP cells) | RWPE-1 growth in clonogenic assay (RWPE-1 cells) | DU145 growth in clonogenic assay (DU145 cells) | PNT-2 growth in clonogenic assay (PNT-2 cells) | PC3 growth in clonogenic assay (PC3 cells) | TUNEL positive cells (apoptosis) (22Rv.1 xenograft tumor) |
| --- | --- | --- | --- | --- | --- | --- |
| 19-mer: Bag-1L 202–220 (TPLSALGIQDGCRVMLIGK; not fully specified) | inhibited growth | not growth inhibited | inhibited growth | not growth inhibited | inhibited growth |  |
| Bag-1 peptide: internal sequence of 68 amino acids of Bag-1 (Bag1-L 202–269), HA-tagged, expressed from pcDNA3 (also: HA tag, end not given here) TPLSALGIQDGCRVMLIGKKNSPQEEVELKKLKHLEKSVEKIADQLEELNKELTGIQQGFLPKDLQAE |  |  |  |  |  | strong signals indicative of massive apoptosis |
